Results: PubChem BioAssay (NCI)
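Method: 48-hour compound exposure of cells in 96-well plates, five concentrations, linear interpolation of endpoints. Here, GI50 denotes the concentration required for 50% inhibition of growth. Definition used: TGI = concentration required for complete inhibition of growth.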

Legend:
Experiment in all cases: NCI tumour cell line growth inhibition, 48 h
[1] = test system: HL-60(TB) leukemia
[2] = test system: A498 renal
[3] = test system: UO-31 renal
[4] = test system: BT-549 breast
[5] = test system: OVCAR-8 ovarian
[6] = test system: NCI-H522 lung
[7] = test system: NCI-H460 lung
[8] = test system: NCI/ADR-RES ovarian
[9] = test system: EKVX NSCLC
[10] = test system: COLO 205 colon

| Compound | GI50 [1] [µM] | TGI [1] [µM] | GI50 [2] [µM] | TGI [2] [µM] | GI50 [3] [µM] | TGI [3] [µM] | GI50 [4] [µM] | TGI [4] [µM] | TGI [5] [µM] | TGI [6] [µM] | TGI [7] [µM] | TGI [8] [µM] | TGI [9] [µM] | TGI [10] [µM] |
| --- | --- | --- | --- | --- | --- | --- | --- | --- | --- | --- | --- | --- | --- | --- |
| Fc1ccc2[nH]cc(-c3nc(-c4c[nH]c5ccncc45)cs3)c2c1 | 2.07 | 4.58 | 1.98 | 3.43 | 1.33 | 2.61 | 1.65 | 3.07 | – | – | – | – | – | – |
| COc1ccc(N2CN(C)CSC2=S)cc1 | – | > 100 | – | > 100 | – | > 100 | – | > 100 | > 100 | > 100 | > 100 | > 100 | > 100 | > 100 |
| C/C(=N/NC(=S)N(C)C)c1ccccc1O | – | > 51.9 | – | 97.9 | – | > 100 | – | > 100 | > 74.4 | > 100 | 30.1 | 13.8 | > 100 | > 58.6 |
| COc1ccc(C(=O)c2c(-c3ccccc3NC(=O)C(F)(F)F)[nH]c3ccccc23)cc1 | – | 13.6 | – | 4.7 | – | 19.4 | – | 29 | 23.5 | 22.8 | 16.4 | 28.8 | 24.4 | 16.1 |
| COc1cc(NS(C)(=O)=O)ccc1NCc1cnc2ccc3[nH]cccc3c12 | – | 18.3 | – | 59.2 | – | 59 | – | 52.6 | 75.7 | 39.9 | 42.1 | 62.1 | 57.7 | 31.3 |
| Cn1c(=O)c2c(nc3n2CCC(=O)N3CCCCl)n(C)c1=O | – | > 100 | – | > 100 | – | > 100 | – | > 100 | > 100 | – | > 100 | > 100 | > 100 | > 100 |
| COc1cc(S(=O)(=O)Nc2ccc(-c3csc(N4C(=O)C(Cl)C4c4cccc(Oc5ccccc5)c4)n3)cc2)ccc1Cl (centres undefined) | – | 41.7 | – | 64.8 | – | 43.9 | – | 81.5 | > 100 | 3.22 | > 100 | > 100 | 52 | 45.5 |
| Clc1ccc2nc3n[nH]c(Cl)c3nc2c1 | – | – | – | > 100 | – | 68.2 | – | > 100 | > 100 | – | > 100 | > 100 | 85.4 | > 100 |
| CCNC(=O)NNc1ncnc2c1c(-c1ccc(Cl)cc1)cn2-c1ccc(C)cc1 | – | 34.7 | – | 30.6 | – | 28.3 | – | – | 28.8 | 38.3 | 48.5 | 38.4 | 65.4 | 29.9 |
| CCOC(=O)C1(C#N)C2(C#N)C(N)=NC(ON=C(C)C)(ON=C(C)C)C12C#N (centres undefined) | – | > 100 | – | > 100 | – | > 100 | – | > 100 | > 100 | > 100 | > 100 | > 100 | > 100 | > 100 |
| Cc1nc2ccccc2c(=O)n1NC(=O)c1ccccc1[N+](=O)[O-] | – | > 100 | – | > 100 | – | > 100 | – | > 100 | – | > 100 | > 100 | > 100 | > 100 | – |
| Nc1nc(Nc2ccc(Cl)cc2)sc1C(=O)c1c[nH]c2ccccc12 | – | 82.8 | – | 23.3 | – | 34.2 | – | 34 | – | – | 21.3 | 33.1 | – | 18 |
| CC(C(=O)NCCNC(=O)CCC(=O)N(C)O)C(=O)NCCNC(=O)CCC(=O)N(C)O | – | > 100 | – | > 100 | – | > 100 | – | – | > 100 | > 100 | > 100 | > 100 | > 100 | > 100 |
| CC(=O)OC12CC(C(F)(F)F)(C(F)(F)F)OC1(OC(C)=O)CC(C(F)(F)F)(C(F)(F)F)O2 (centres undefined) | – | 11.3 | – | 8.57 | – | 13.3 | – | > 100 | > 100 | > 100 | > 100 | > 100 | – | 25.6 |
| Nc1nc2c(c(-c3ccccc3Cl)n1)COC/C2=C\c1ccccc1Cl | – | 25.5 | – | 30.6 | – | 32 | – | 33.4 | 30.8 | 31 | 39 | 33 | 35.2 | 30.1 |
| CSc1c2c(C)n[nH]c2nn1-c1ccccc1 | – | 93.6 | – | > 100 | – | > 100 | – | > 100 | > 100 | > 100 | > 100 | > 100 | > 100 | > 100 |
| C/C=C/c1cc2c(c(=O)o1)C(=O)[C@@H](O)[C@H](C)O2 | – | 54.4 | – | 16.9 | – | 37.2 | – | – | 35 | 20.4 | 46.9 | 32.3 | 31 | 25.7 |
| c1ccc(C(c2cccc3c2ccc2ccccc23)C(c2ccccc2)c2cccc3c2ccc2ccccc23)cc1 (centres undefined) | – | > 100 | – | > 100 | – | > 100 | – | > 100 | > 100 | > 100 | > 100 | > 100 | > 100 | > 100 |
| N/C(=N\NC(=O)c1nc2ccccc2s1)c1ccccn1 | – | 23.4 | – | 36.1 | – | 15.8 | – | > 100 | > 47.2 | 44.6 | 17.9 | 15.5 | > 63.6 | 27.6 |
| Nc1ncnc2c1ncn2C1OC(CO)C(O)C1NS(=O)(=O)c1ccccc1 (centres undefined) | – | > 100 | – | > 100 | – | > 100 | – | > 100 | > 100 | > 100 | > 100 | > 100 | > 100 | > 100 |
| CC(=O)NNc1nc(C)c(C(/C=C/c2ccc([N+](=O)[O-])cc2)=N/NC(N)=O)s1 | – | – | – | > 100 | – | > 100 | – | > 100 | > 100 | > 100 | > 100 | > 100 | > 100 | > 100 |
| O=C(CNc1nccs1)Nn1cnc2ccc(S(=O)(=O)Nc3nccs3)cc2c1=O | – | > 100 | – | – | – | > 100 | – | > 100 | > 100 | > 100 | > 100 | > 100 | > 100 | > 100 |
